Test results taken from patent US6403363B1, “Method of preservation of vaccines with polybiguanide” (priority 1997, dated 2002).
Where two headings read alike, the source gives them in different places.

Experiments:
seed virus grown in eggs = test system: seed virus grown in eggs; design: species or system influenza virus
[1] = Visible effect of preservative on allantoic fluid; format: physicochemical; settings: preservative 0.1%
Description: The preserved samples were also examined to determine the visible effect on allantoic fluid, and the results are shown in Table 4 below.

C[CH2][Hg][S]c1ccccc1C(=O)[O-].[Na+] [thiomersal, sodium ethylmercurithiosalicylate]
Log egg infective doses/ml (seed virus grown in eggs; virus seed + 0.01% preservative): 8.2

O=[N+]([O-])C(Br)(CO)CO [bronopol, 2-bromo-2-nitropropan-1,2-diol]
Infectivities (summary) (seed virus grown in eggs; 0.1% preservative): Unsatisfactory | effect on egg infectivities (seed virus grown in eggs; compared with Cosmocil CQ and thiomersal, 0.1% bronopol, 0.4% Biopure): pronounced negative effect | Log egg infective doses/ml (seed virus grown in eggs; virus seed + 0.1% preservative): <5.4 log egg infective doses/ml

O=[N+]([O-])C(Br)(CO)CO [Nipaguard BNPD]
Effect on allantoic fluid (visible) [1]: No effect
